{"source": "patent US10662193B2", "about": "“Carbazole and carboline compounds for use in the diagnosis, treatment, alleviation or prevention of disorders associated with amyloid or amyloid-like proteins” (AC IMMUNE SA, priority 2014, dated 2020)", "key": {"[1]": {"test_system": "tau tangles/Aβ plaques on AD brain sections", "experiment": "Assay 1: direct staining of human Alzheimer's disease brain sections (fluorescence)", "format": "binding", "parameters": "key to Direct staining of tau tangles/Aβ plaques on AD brain sections at 100 μM / Direct staining of tau tangles on AD brain sections at 100 μM / Direct staining of Aβ plaques on AD brain sections at 100 μM / Direct staining of tau tangles on AD brain sections (footnote a: at 250 μM): − (No); +++ (strong); ++ (good); + (weak)", "conditions": "for Direct staining of tau tangles/Aβ plaques on AD brain sections at 100 μM: human AD brain sections, fluorescence, cell does not say tangles or plaques; for Direct staining of tau tangles on AD brain sections (footnote a: at 250 μM): 250 μM compound", "summary_of_the_method": "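Compounds (100 μM, 50% aqueous ethanol, 20 min, RT, dark) applied directly to fixed […] frozen amygdala sections of Braak stage V-VI Alzheimer's brains. After washing and 0.1% Sudan Black treatment against autofluorescence, sections were imaged microscopically for fluorescent staining.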"}, "[2]": {"test_system": "tau tangles on AD brain section", "experiment": "Assay 1: displacement of RefA on human AD brain sections (fluorescence)", "format": "binding", "conditions": "for Selectivity (tau/Abeta): ratio of competition on tau tangles to competition on Aβ plaques", "experimental": "Direct Binding of Compounds of this Invention to Human Alzheimer's Disease Brain Sections and/or Displacement of RefA and Compound B\nFrozen sections with a thickness of […] from the amygdala of donors diagnosed with Braak stage V-VI Alzheimer's Disease (Braak, H.; Braak, E. Acta Neuropathol., 1991, 82, 239-259), were purchased from a commercial provider (Tissue Solutions) and kept at −80° C. until use.\nDisplacement of RefA and Compound B\nBrain sections were mainly treated as described above. Test compounds were, however, incubated on the section at 250 μM in 50% ethanol for 20 min at room temperature, and then directly incubated with the fluorescent reference compounds RefA and Compound B, each at 1 μM in 50% ethanol for 20 min at room temperature. RefA and Compound B stainings were visualized using the 470 nm and 365 nm excitation filters, respectively. Images were acquired, and tangles and plaques quantified using the NIS-Element software. Only those compounds not directly staining tangles or plaques at the same wavelengths as RefA and Compound B were tested in the displacement assay.\nStructure of RefA (Tago et al., J. Label. Compd. Radiopharm. 2013, DOI: 10.1002/jlcr.3133)"}, "[3]": {"test_system": "Aβ plaques on AD brain section", "experiment": "Assay 1: displacement of Compound B on human AD brain sections (fluorescence)", "format": "binding", "experimental": "Direct Binding of Compounds of this Invention to Human Alzheimer's Disease Brain Sections and/or Displacement of RefA and Compound B Frozen sections with a thickness of […] from the amygdala of donors diagnosed with Braak stage V-VI Alzheimer's Disease (Braak, H.; Braak, E. Acta Neuropathol., 1991, 82, 239-259), were purchased from a commercial provider (Tissue Solutions) and kept at -80° C. until use. Displacement of RefA and Compound B Brain sections were mainly treated as described above. Test compounds were, however, incubated on the section at 250 μM in 50% ethanol for 20 min at room temperature, and then directly incubated with the fluorescent reference compounds RefA and Compound B, each at 1 μM in 50% ethanol for 20 min at room temperature. RefA and Compound B stainings were visualized using the 470 nm and 365 nm excitation filters, respectively. Images were acquired, and tangles and plaques quantified using the NIS-Element software. Only those compounds not directly staining tangles or plaques at the same wavelengths as RefA and Compound B were tested in the displacement assay. Structure of Compound B (prepared by a similar procedure described for […] in WO2010/011964): […]"}, "AD brain-enriched PHF": {"molecular_target": "AD brain-enriched PHF (Homo sapiens, UniProt P10636)", "sequence (P10636 623-708 limits assumed)": "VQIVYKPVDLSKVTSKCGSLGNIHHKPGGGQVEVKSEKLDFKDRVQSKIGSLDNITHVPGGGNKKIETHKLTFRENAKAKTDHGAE", "experiment": "Assay 2 (filter trap): [3H]RefA radio-binding competition assay and Ki on PHF", "conditions": "[^3H]RefA 10 nM; for Ki: PHF diluted 1/80, compound 0.12 nM to 50 μM", "experimental": "Displacement of [^3H]RefA by Compounds of this Invention\n50 g of frontal lobe tissue from post-mortem brain of an Alzheimer's disease (AD) patient were obtained from the London Tissue Bank. The patient was a […] and died […]. The brain sample was collected 5 hours post-mortem and characterized for Braak disease stage (Braak, H.; Braak, E. Acta Neuropathol., 1991, 82, 239-259) as stage VI. For the enrichment of PHF's, around 15 g of the AD human brain was thawed on ice and homogenized with 50 ml of homogenization buffer [0.75 M NaCl in RAB buffer (100 mM 2-(N-morpholino) ethanesulfonic acid (MES), 1 mM EGTA, 0.5 mM MgSO4, 2 mM DTT, pH 6.8) supplemented with protease inhibitors (Complete; Roche 11697498001) in a glass Dounce homogenizer. The homogenate was then incubated at 4° C. for 20 min to let any residual microtubules depolymerize, before the homogenate was transferred into polycarbonate centrifuge bottles (16×76 mm; Beckman 355603) and centrifuged at 11,000 g (12,700 RPM) in an ultracentrifuge (Beckman, XL100K) for 20 min at 4° C. using the pre-cooled 70.1 rotor (Beckman, 342184). Pellets were kept on ice. Supernatants were pooled into polycarbonate bottles and centrifuged again at 100,000 g (38,000 RPM) for 1 h at 4° C. in the 70.1 Ti rotor to isolate PHF-rich pellets, whereas soluble tau remained in the supernatants. The pellets from the first and second centrifugations were re-suspended in 120 mL of extraction buffer [10 mM Tris-HCl pH 7.4, 10% sucrose, 0.85 M NaCl, 1% protease inhibitor (Calbiochem 539131), 1 mM EGTA, 1% phosphatase inhibitor (Sigma P5726 and P0044)]. The solution was then transferred into polycarbonate centrifuge bottles (16×76 mm; Beckman 355603) and centrifuged at 15,000 g (14,800 RPM) in an ultracentrifuge (Beckman, XL100K) for 20 min at 4° C. using the 70.1 Ti rotor. In the presence of 10% sucrose and at low speed centrifugation, most PHF remained in the supernatant whereas intact or fragmented NFTs and larger PHF aggregates were pelleted. The pellets were discarded. 20% Sarkosyl (Sigma L7414-10ML) was added to the supernatants to a final concentration of 1% and stirred at room temperature for 1 h. This solution was then centrifuged into polycarbonate bottles at 100,000 g (38,000 RPM) for 1 h at 4° C. in the 70.1 Ti rotor, and the pellets containing PHF-rich material were re-suspended in a total final volume of 1.5 mL of PBS, aliquoted and stored at −80° C.\n[^3H]RefA Radio-Binding Competition Assay\nAD brain-enriched PHF diluted 1/80 were incubated in the presence of [^3H]RefA at 10 nM and the example compounds of this invention at 2.5 μM (250× excess), for 45 minutes at 37° C. Samples were then analyzed by on GF/B filter plates as described above (in the section “[^3H]RefA radio-binding assay and determination of the dissociation constant (Kd)). Non-specific signal was determined again with an excess of un-labeled RefA and specific binding calculated by subtracting the non-specific signal from the total signal. Competition was calculated as percent, where 0% was defined as the specific binding in the presence of vehicle (2.8% DMSO in PBS) and 100% as the values obtained in the presence of excess cold RefA. Similar assays were performed to determine the competition of the cold compounds on [^3H]RefA on in vitro aggregated recombinant human tau or Abeta1-42 For both recombinant proteins, 20 μg/mL of aggregates were incubated with 10 nM of [^3H]RefA for recombinant human tau or 80 nM of [^3H]RefA for recombinant human Abeta1-42.\nDetermination of the Binding Affinity (Ki)\nSamples were then analyzed on GF/B filter plates as described above and Ki values calculated using Prism V5 (GraphPad)."}}, "data": [{"smiles": "Cn1c2ccncc2c2ccc(Nc3ccc(F)c(N4CCOCC4)c3)nc21", "note": "[Example 3]", "values": [{"measurement": "Direct staining of tau tangles/Aβ plaques on AD brain sections at 100 μM", "setting": "[1]; 100 μM compound", "value": "−"}, {"measurement": "Competition on AD brain section tau tangles (1 μM RefA vs. 250 μM compound)", "setting": "[2]", "value": 78, "unit": "%"}, {"measurement": "Selectivity (tau/Abeta)", "setting": "[2]", "value": "~9.8", "unit": "fold"}, {"measurement": "Competition on AD brain section Aβ plaques (1 μM Compound B vs 250 μM compound)", "setting": "[3]", "value": 8, "unit": "%"}, {"measurement": "Ki", "setting": "AD brain-enriched PHF", "value": 233, "unit": "nM"}]}, {"smiles": "Cn1c2ccncc2c2ccc(Nc3ccc(F)cc3N3CCOCC3)nc21", "note": "[Example 5]", "values": [{"measurement": "Direct staining of tau tangles/Aβ plaques on AD brain sections at 100 μM", "setting": "[1]; 100 μM compound", "value": "−"}, {"measurement": "Competition on AD brain section tau tangles (1 μM RefA vs. 250 μM compound)", "setting": "[2]", "value": 0, "unit": "%"}, {"measurement": "Competition on AD brain section Aβ plaques (1 μM Compound B vs 250 μM compound)", "setting": "[3]", "value": 12, "unit": "%"}, {"measurement": "Ki", "setting": "AD brain-enriched PHF", "value": 305, "unit": "nM"}]}, {"smiles": "Cn1c2ccncc2c2ccc(Nc3cccc(N4CCOCC4)c3F)nc21", "note": "[Example 12]", "values": [{"measurement": "Direct staining of tau tangles/Aβ plaques on AD brain sections at 100 μM", "setting": "[1]; 100 μM compound", "value": "−"}, {"measurement": "Competition on AD brain section tau tangles (1 μM RefA vs. 250 μM compound)", "setting": "[2]", "value": 98, "unit": "%"}, {"measurement": "Selectivity (tau/Abeta)", "setting": "[2]", "value": ">98", "unit": "fold"}, {"measurement": "Competition on AD brain section Aβ plaques (1 μM Compound B vs 250 μM compound)", "setting": "[3]", "value": 0, "unit": "%"}, {"measurement": "Ki", "setting": "AD brain-enriched PHF", "value": 165, "unit": "nM"}]}, {"smiles": "CN1CCc2c(c3ccc(Nc4ccc(F)cc4N4CCOCC4)nc3n2C)C1=O", "note": "[Example 175]", "values": [{"measurement": "Direct staining of tau tangles/Aβ plaques on AD brain sections at 100 μM", "setting": "[1]; 100 μM compound", "value": "−"}, {"measurement": "Competition on AD brain section tau tangles (1 μM RefA vs. 250 μM compound)", "setting": "[2]", "value": 6, "unit": "%"}, {"measurement": "Competition on AD brain section Aβ plaques (1 μM Compound B vs 250 μM compound)", "setting": "[3]", "value": 0, "unit": "%"}, {"measurement": "inhibition at 2.5 µM", "setting": "AD brain-enriched PHF; compound 2.5 μM, no Ki determined", "value": "< 50", "unit": "%"}]}, {"smiles": "Cn1c2ccncc2c2ccc(Nc3cccc(N4CCOCC4)c3)nc21", "note": "[Example 1]", "values": [{"measurement": "Direct staining of tau tangles/Aβ plaques on AD brain sections at 100 μM", "setting": "[1]; 100 μM compound", "value": "−"}, {"measurement": "Competition on AD brain section tau tangles (1 μM RefA vs. 250 μM compound)", "setting": "[2]", "value": 84, "unit": "%"}, {"measurement": "Selectivity (tau/Abeta)", "setting": "[2]", "value": "~2.6", "unit": "fold"}, {"measurement": "Competition on AD brain section Aβ plaques (1 μM Compound B vs 250 μM compound)", "setting": "[3]", "value": 32, "unit": "%"}, {"measurement": "Ki", "setting": "AD brain-enriched PHF", "value": 78, "unit": "nM"}]}, {"smiles": "Cn1c2ccncc2c2ccc(N3CCOC[C@H]3CF)nc21", "note": "[Example 150]", "values": [{"measurement": "Direct staining of tau tangles on AD brain sections (footnote a: at 250 μM)", "setting": "[1]; tangles", "value": "+ (tangles)^a"}, {"measurement": "Competition on AD brain section tau tangles (1 μM RefA vs. 250 μM compound)", "setting": "[2]", "value": 18, "unit": "%"}, {"measurement": "Competition on AD brain section Aβ plaques (1 μM Compound B vs 250 μM compound)", "setting": "[3]", "value": 3, "unit": "%"}]}, {"smiles": "Cn1c2ccncc2c2ccc(Nc3cccc(OC(F)F)c3)nc21", "note": "[Example 4]", "values": [{"measurement": "Direct staining of tau tangles on AD brain sections (footnote a: at 250 μM)", "setting": "[1]; tangles", "value": "+ (tangles)^a"}, {"measurement": "Competition on AD brain section tau tangles (1 μM RefA vs. 250 μM compound)", "setting": "[2]", "value": 91, "unit": "%"}, {"measurement": "Selectivity (tau/Abeta)", "setting": "[2]", "value": "~5.4", "unit": "fold"}, {"measurement": "Competition on AD brain section Aβ plaques (1 μM Compound B vs 250 μM compound)", "setting": "[3]", "value": 17, "unit": "%"}, {"measurement": "Ki", "setting": "AD brain-enriched PHF", "value": 3.3, "unit": "nM"}]}, {"smiles": "Cn1c2ccncc2c2ccc(Nc3cc(F)cc(N4CCOCC4)c3)nc21", "note": "[Example 7]", "values": [{"measurement": "Direct staining of tau tangles on AD brain sections at 100 μM", "setting": "[1]; 100 μM compound, tangles", "value": "++ (tangles)"}, {"measurement": "Competition on AD brain section tau tangles (1 μM RefA vs. 250 μM compound)", "setting": "[2]", "value": 84, "unit": "%"}, {"measurement": "Selectivity (tau/Abeta)", "setting": "[2]", "value": ">84", "unit": "fold"}, {"measurement": "Competition on AD brain section Aβ plaques (1 μM Compound B vs 250 μM compound)", "setting": "[3]", "value": 0, "unit": "%"}, {"measurement": "Ki", "setting": "AD brain-enriched PHF", "value": 326, "unit": "nM"}]}]}
